# According to patent US8937039B2, “Peptide-based peroxidase inhibitors and methods of using same” (The Medical College of Wisconsin, Inc., priority 2009, dated 2015):
# Residues, ends and D or L forms follow the SMILES beside them.
# Legend:
# SCD mice [1] = assay: Vessel wall thickness of facialis arteries of treated SCD mice; assay type: in vivo, mouse; settings: KYC three weeks; P=0.10
# Procedure: Vessel Wall Thickness. After completing the vasodilatation studies, the pressurized vessels were maximally dilated by addition of papaverine (10^−4 mol/L, 4 min), and outside and inside diameters recorded. An index of wall thickness was calculated using the following formula; ([…]/2)/outside diameter, as previously described.
# SCD mice [2] = assay: WBC counts in treated SCD mice (cytometry); assay type: in vivo, mouse; settings: KYC-treated SCD mice
# Procedure: […] vascular function in SCD mice. To determine whether inhibiting MPO improves vascular function and/or reduces inflammation in vivo, SCD mice were treated with KYC for three weeks. […] Such physiological and structural changes are consistent with immunofluorescent studies showing that chlorotyrosine and MPO levels are reduced in the aortas of KYC-treated SCD mice compared with non-treated SCD mice (FIG. 13). High WBC counts are indicative of on-going inflammation in SCD and predictive of future vaso-occlusive events. Accordingly, WBC levels were quantified in the SCD mice using standard cytometry assays.
# [3] = tested on: facialis arteries from non-treated SCD mice; assay: Vasodilatation of facialis arteries from untreated SCD mice, peptide added ex vivo; set-up: species or system mouse; settings: KYC 1.5 μg/ml, 20 min
# Procedure: For vessels treated with KYC (ex-vivo): Using untreated SCD mice, the vessels were isolated/cannulated the same as for the mice treated with KYC in vivo. After the control dose-response curve using acetylcholine (ACh, 10^−7-10^−4 M) and subsequent washing, the vessels were incubated with KYC 1.5 μg/ml for 20 minutes, pre-constricted, and exposed to acetylcholine (ACh, 10^−7-10^−4 M). Vasodilation to papaverine (2.0×10^−4 M) was determined after all treatments to ensure smooth muscle viability. Vasodilation was calculated as a percent of maximal vessel diameter change.
# MPO = target: T1, MPO (Homo sapiens, UniProt P05164); assay: MPO-mediated nitration of BSA (western blot for nitrotyrosine); assay type: biochemical; set-up: purchased Lee Biosolutions (St. Louis, Mo.); settings: for MPO-mediated BSA nitration (in words): H2O2 100 μM, nitrite 100 μM
# T1 sequence (P05164 49-745): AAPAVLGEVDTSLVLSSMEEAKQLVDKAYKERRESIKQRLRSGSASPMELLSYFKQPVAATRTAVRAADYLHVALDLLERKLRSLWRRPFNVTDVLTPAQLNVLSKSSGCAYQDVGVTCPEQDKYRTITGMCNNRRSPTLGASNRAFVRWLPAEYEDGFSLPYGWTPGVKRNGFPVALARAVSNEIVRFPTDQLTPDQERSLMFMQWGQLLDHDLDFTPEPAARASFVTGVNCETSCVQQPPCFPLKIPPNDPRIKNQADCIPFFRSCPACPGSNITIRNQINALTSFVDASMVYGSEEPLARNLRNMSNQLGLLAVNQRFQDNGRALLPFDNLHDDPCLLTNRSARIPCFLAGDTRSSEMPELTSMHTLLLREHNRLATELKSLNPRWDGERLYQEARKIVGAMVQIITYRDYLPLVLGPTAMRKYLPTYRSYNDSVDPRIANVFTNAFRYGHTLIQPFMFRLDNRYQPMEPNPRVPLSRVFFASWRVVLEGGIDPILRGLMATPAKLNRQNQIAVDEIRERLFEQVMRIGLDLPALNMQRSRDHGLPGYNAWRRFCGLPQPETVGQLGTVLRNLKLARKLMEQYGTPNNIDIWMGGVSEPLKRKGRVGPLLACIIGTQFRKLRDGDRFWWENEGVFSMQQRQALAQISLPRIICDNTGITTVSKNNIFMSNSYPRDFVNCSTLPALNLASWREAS
# Procedure: MPO-mediated Nitration of Bovine Serum Albumin (BSA). BSA (0.5 mg/mL) was incubated with MPO (20 nM), H2O2 (100 μM), nitrite (100 μM) and increasing concentrations of KYC in phosphate buffer (100 mM, pH 7.4) containing DTPA (100 μM) for 30 min. Reactions were stopped by addition of catalase. Nitrotyrosine formation was assessed by western blot analysis.
# MPO-mediated Nitration of Bovine Serum Albumin (BSA): BSA (0.5 mg/mL) was incubated with MPO (20 nM), H2O2 (25 μM), NaNO2 (50 μM) and increasing concentrations of KYC in phosphate buffer (100 mM, pH 7.4) containing DTPA (100 μM) for 30 min. Reactions were halted by addition of catalase (2,000 units/mL). NO2Tyr formation was assessed by western blot analysis with an anti-NO2Tyr rabbit polyclonal antibody (EMD, Gibbstown, N.J.).
compound,measurement,setting,value
"CC(=O)N[C@@H](CCCCN)C(=O)N[C@@H](Cc1ccc(O)cc1)C(=O)N[C@@H](CS)C(N)=O [KYC, N-acetyl Lysyltyrosylcysteine Amide] (Ac-Lys-Tyr-Cys-NH2)",Vessel wall thickness (in words),SCD mice [1],reduces vessel wall thickness
same,Reduction of WBC counts (in words),SCD mice [2],more than half
same,"Vasodilatation in response to ACh, peptide added to vessel bath (in words)",[3],did not increase vasodilatation
same,inhibition at 12.5 µM,"MPO; 12.5 μM KYC, H2O2 25 μM, NaNO2 50 μM, read-out: Inhibition of NO2Tyr formation in BSA",50%
same,MPO-mediated BSA nitration (in words),MPO; 30 μM KYC,inhibits
same,NO2Tyr formation in BSA (in words),"MPO; 50 μM KYC, H2O2 25 μM, NaNO2 50 μM",essentially ablated
same,MPO-mediated BSA nitration (in words),MPO; 250 μM KYC,essentially ablates
